Consider six compounds from patent US20230114728A1 (Venatorx Pharmaceuticals, Inc., priority 2019, published 2023).

The target in assay [1] is T1, E. coli K12 PBP2 (Escherichia coli, UniProt P0AD65).
T1 construct: made in house
The assay is described as follows: Bocillin-FL fluorescence polarization competition binding assay, E. coli PBP2. From the text:
(§1) Example I: Experimental Method for Penicillin-Binding Protein Binding Assays with Bocillin-FL Via Fluorescence Polarization
(§2) To determine the ability of boronic acid-based test PBP inhibitors to bind Penicillin Binding Proteins (PBPs), Bocillin-FL (fluorescently-labeled penicillin V; ThermoFisher Scientific) was used in a fluorescence polarization (FP) competition binding assay to assess inhibitor binding to PBP2, PBP3 or PBP4 from Escherichia coli (K12), PBP3 from Pseudomonas aeruginosa (PA01), PBP1a, PBP2 and PBP3 from Acinetobacter baumannii (ATCC 19606), and PBP2 from Neiserria gonorrheae (FA19). PBPs were cloned and purified as described previously (E. coli PBPs, King, D. T, et al., ACS Infectious Diseases 2015, 1, 175-184; P. aeruginosa PBP3, Han et. al., PNAS 2010, 107 (51), 22002-22007; A. baumannii PBPs, Penwell et. al., Antimicrob. Agents Chemother. 2015, 59 (3), 1680-1689; N. gonorrhoeae PBP2, Singh et. al., J Biol. Chem. 2019, 294 (38), 14020-14032). To establish assay conditions for competition binding, enzyme titration/saturation binding experiments were initially performed. Bocillin-FL was prepared at 0.2 μM in a buffer comprised of 50 mM Hepes (pH 8.0), 300 mM NaCl and 5% (v/v) glycerol for reactions with E. coli, P. aeruginosa and N. gonorrhoeae PBPs, and 25 mM Tris (pH 8.0), 200 mM NaCl and 10% (v/v) glycerol and 0.005% (v/v) Tween 20 for reactions with A. baumannii PBPs. Saturation binding was performed by mixing 40 μl of PBP solutions ranging in concentrations from 0-24 μM with 40 μl of the 0.2 μM Bocillin-FL solution, in individual wells of a black 384-well microplate. FP was measured immediately upon mixing (Excitation, 490 nm; Emission, 520 nm; g-factor, 0.96), using a Cytation3 (BioTek) microplate reader and measured continuously for up to 120 minutes. […] Bocillin-FL was added and the FP immediately measured for up to 60 minutes (90 minutes for E. coli PBP2). […]
For orientation: Polarisation of emitted light reports the rotation of a fluorescent probe.

Assay [2] concerns the target T2, E. coli K12 PBP4 (Escherichia coli, UniProt P24228).
T2 construct: made in house
The assay is described as follows: Bocillin-FL fluorescence polarization competition binding assay, E. coli PBP4. The conditions noted are these: fluorescence polarization competition binding assay using Bocillin-FL; read-out: E. coli K12 PBP4 Potency (EC50).
Description: as §1, §2

For assay [3], the system named is P. aeruginosa PAO1. Nature of the assay: Broth microdilution MIC in CAMHB. Format: cell-based. The conditions noted are these: Pseudomonas aeruginosa, MHB, read-out: Minimum Inhibitory Concentration, P. aeruginosa PAO1. Here is the method:
To determine the ability of test compounds to inhibit the growth of bacterial strains, classic cell based broth microdilution minimum inhibitory concentration (MIC) assays were employed. MIC assays are performed according to CLSI methods except where otherwise noted (CLSI, 2018 and CLSI, 2019). The reference type strain E. coli ATCC 25922; the wild-type parent strain E. coli AG100; the hyper-permeable E. coli 901C and E. coli D22; and the E. coli AG100A strain lacking the acrAB efflux pump encoding genes were used to determine the ability of the PBP inhibitors to penetrate the outer membrane of gram-negative bacteria and inhibit bacterial growth. […] The P. aeruginosa ATCC 27853 and A. baumannii ATCC 19606, along with the hyper-permeable P. aeruginosa ATCC 35151 and an engineered efflux pump-compromised strain of P. aeruginosa (ΔmexAB-oprM) were used to determine the ability of PBP inhibitors to penetrate the outer membrane of P. aeruginosa and A. baumannii and assess antibacterial activity against these important gram-negative organisms.
Briefly, cryo-preserved bacterial cultures of challenge strains are streaked for isolation on appropriate agar medium, in this case cation-adjusted Mueller Hinton agar. Following incubation to allow growth of the colonies, plates are sealed with parafilm and stored refrigerated for up to two weeks. For preparation of assay inoculum and to ensure low variability, at least 5 colonies are picked from the agar plates with an inoculating loop and aseptically transferred to a culture tube containing 3 mL of cation-adjusted Mueller Hinton broth (CAMHB). The broth culture is grown for 3-5 hours at 37° C. with shaking at 200 rpm. Meanwhile, 2-fold serial dilutions of test compounds are conducted in a 96-well plate with a final volume of 75 μL per well at 2-fold the final desired concentration. After the dilution plates are set up the growing cultures are then diluted in a cuvette containing CAMHB and the optical density is measured at 600 nm. The inoculum is diluted such that 75 μL of this culture in CAMHB results in a starting bacterial concentration of 2-8×10^5 CFU/mL when added to the dilution plates. The plates are incubated for 16-20 hours for Enterobacteriaceae and Pseudomonas and 20-24 hours for Acinetobacter at 37° C. The MIC values are read visually as the lowest concentration well with no bacterial growth.
On the technique in general: Dilution methods test growth across graded concentrations, often in twofold steps.

T1 sequence (P0AD65 whole entry): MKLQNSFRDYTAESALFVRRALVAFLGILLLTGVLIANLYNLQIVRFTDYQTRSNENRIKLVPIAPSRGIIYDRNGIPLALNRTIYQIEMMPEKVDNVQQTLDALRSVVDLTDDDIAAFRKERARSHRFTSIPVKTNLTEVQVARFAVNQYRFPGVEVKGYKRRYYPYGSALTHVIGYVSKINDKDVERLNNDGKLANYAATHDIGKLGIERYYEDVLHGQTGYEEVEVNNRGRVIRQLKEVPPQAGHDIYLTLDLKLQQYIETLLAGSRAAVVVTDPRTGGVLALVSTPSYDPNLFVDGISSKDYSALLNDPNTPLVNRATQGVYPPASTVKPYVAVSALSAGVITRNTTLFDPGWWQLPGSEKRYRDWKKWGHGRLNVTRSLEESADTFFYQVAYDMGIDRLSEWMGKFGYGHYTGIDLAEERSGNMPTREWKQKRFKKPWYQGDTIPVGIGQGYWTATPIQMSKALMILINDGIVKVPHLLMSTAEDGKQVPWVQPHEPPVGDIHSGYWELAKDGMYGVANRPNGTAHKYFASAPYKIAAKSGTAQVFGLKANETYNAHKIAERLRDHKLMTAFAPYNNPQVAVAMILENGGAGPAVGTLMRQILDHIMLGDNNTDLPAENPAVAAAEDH
T2 sequence (P24228 21-477): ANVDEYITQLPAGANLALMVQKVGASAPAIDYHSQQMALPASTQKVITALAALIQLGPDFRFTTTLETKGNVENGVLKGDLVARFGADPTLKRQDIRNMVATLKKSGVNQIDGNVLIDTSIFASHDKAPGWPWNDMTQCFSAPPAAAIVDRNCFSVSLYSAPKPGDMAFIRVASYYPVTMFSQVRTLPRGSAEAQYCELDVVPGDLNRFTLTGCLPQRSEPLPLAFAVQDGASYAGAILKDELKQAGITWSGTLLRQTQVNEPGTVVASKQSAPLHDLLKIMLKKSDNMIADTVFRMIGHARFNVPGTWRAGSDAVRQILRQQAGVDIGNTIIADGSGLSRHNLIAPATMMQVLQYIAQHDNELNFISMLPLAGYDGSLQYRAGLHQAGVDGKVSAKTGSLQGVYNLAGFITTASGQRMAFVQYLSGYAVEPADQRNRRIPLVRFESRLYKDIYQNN

`CCN1CCN(C(=O)NC(C(=O)N[C@H]2Cc3ccc(S)c(C(=O)O)c3OB2O)c2csc(N)n2)C(=O)C1=O` (stereo partly drawn) [Example 54, (3R)-3-(2-(2-aminothiazol-4-yl)-2-(4-ethyl-2,3-dioxopiperazine-1-carboxamido)acetamido)-2-hydroxy-7-mercapto-3,4-dihydro-2H-benzo[e][1,2]oxaborinine-8-carboxylic acid]: the EC50 in assay [1] and in assay [2] was 30 to 500 µM throughout. In the case of `CCN1CCN(C(=O)NC(C(=O)N[C@H]2Cc3ccc(SCc4ccc(O)cc4)c(C(=O)O)c3OB2O)c2csc(N)n2)C(=O)C1=O` (stereo partly drawn) [Example 55, (3R)-3-(2-(2-aminothiazol-4-yl)-2-(4-ethyl-2,3-dioxopiperazine-1-carboxamido)acetamido)-2-hydroxy-7-((4-hydroxybenzyl)thio)-3,4-dihydro-2H-benzo[e][1,2]oxaborinine-8-carboxylic acid], the concentration for a half-maximal effect (EC50) in assay [1] and in assay [2] was 30 to 500 µM in each case. Also, the MIC in assay [3] was above 128 µg/mL. Take `CCN1CCN(C(=O)NC(C(=O)N[C@H]2Cc3ccc(C=O)c(C(=O)O)c3OB2O)c2csc(N)n2)C(=O)C1=O` (stereo partly drawn) [Example 57, (3R)-3-(2-(2-aminothiazol-4-yl)-2-(4-ethyl-2,3-dioxopiperazine-1-carboxamido)acetamido)-7-formyl-2-hydroxy-3,4-dihydro-2H-benzo[e][1,2]oxaborinine-8-carboxylic acid]: the MIC in assay [3] was above 128 µg/mL. Regarding `CCN1CCN(C(=O)NC(C(=O)N[C@H]2Cc3ccc(CO)c(C(=O)O)c3OB2O)c2csc(N)n2)C(O)C1=O` (stereo partly drawn) [Example 58, (3R)-3-(2-(2-aminothiazol-4-yl)-2-(4-ethyl-2-hydroxy-3-oxopiperazine-1-carboxamido)acetamido)-2-hydroxy-7-(hydroxymethyl)-3,4-dihydro-2H-benzo[el][1,2]oxaborinine-8-carboxylic acid], the MIC in assay [3] was above 128 µg/mL. Regarding `CCN1CCN(C(=O)NC(C(=O)N[C@H]2Cc3ccc(O[C@@H]4CN[C@H](C(=O)N(C)C)C4)c(C(=O)O)c3OB2O)c2ccccc2)C(=O)C1=O` (stereo partly drawn) [Example 59, (3R)-7-(((3S,5S)-5-(dimethylcarbamoyl)pyrrolidin-3-yl)oxy)-3-(2-(4-ethyl-2,3-dioxopiperazine-1-carboxamido)-2-phenylacetamido)-2-hydroxy-3,4-dihydro-2H-benzo[e][1,2]oxaborinine-8-carboxylic acid], in assay [3], the MIC was above 128 µg/mL. `CCN1CCN(C(=O)NC(C(=O)N[C@H]2Cc3ccc(OCCN)c(C(=O)O)c3OB2O)c2ccccc2)C(=O)C1=O` (stereo partly drawn) [Example 60, (3R)-7-(2-aminoethoxy)-3-(2-(4-ethyl-2,3-dioxopiperazine-1-carboxamido)-2-phenylacetamido)-2-hydroxy-3,4-dihydro-2H-benzo[e][1,2]oxaborinine-8-carboxylic acid]: in assay [3], the MIC was above 128 µg/mL.

A word on the EC50: it is the concentration giving half of the maximal effect.
